According to US12325697B2 (Nimbus Clio, Inc., priority 2021, dated 2025):

How the values were obtained:
[1] = molecular target: Recombinant human Cbl-b (aa 36-427) (Homo sapiens (Human), UniProt Q13191); assay: Cbl-b Biochemical Assay (TR-FRET); conditions: read-out: TR-FRET hCbl-b IC50
Procedure, shortened: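 IC50 from 4-parameter fit of % inhibition (DMSO max, reference-inhibitor min), duplicate ten-point series. Compound preincubated with 6 nM Cbl-b, then Src-Zap70 (1-2.5 nM)/0.5 mM ATP reaction 60 min RT; EDTA quench with labelled UBE2D2-Ub and streptavidin-terbium, 60 min, HTRF at 520 nm.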

[2] = tested on: Jurkat (clone E6-1) cells, NFAT luciferase reporter; assay: Jurkat Reporter Assay (NFAT Luciferase); type: cell-based; conditions: Homo sapiens, anti-CD3 stimulation, 6 hr, read-out: Jurkat NFAT EC50
[3] = tested on: Phospho-Zap70 (Y-319) in Jurkat wild-type (clone E6-1) cells; assay: Jurkat pZAP70 HTRF Assay; type: cell-based; conditions: Homo sapiens, anti-CD3 5 μg/ml, 3 hr, read-out: ZAP70 Jurkat EC50

Recombinant human Cbl-b (aa 36-427), sequence (Q13191 36-427): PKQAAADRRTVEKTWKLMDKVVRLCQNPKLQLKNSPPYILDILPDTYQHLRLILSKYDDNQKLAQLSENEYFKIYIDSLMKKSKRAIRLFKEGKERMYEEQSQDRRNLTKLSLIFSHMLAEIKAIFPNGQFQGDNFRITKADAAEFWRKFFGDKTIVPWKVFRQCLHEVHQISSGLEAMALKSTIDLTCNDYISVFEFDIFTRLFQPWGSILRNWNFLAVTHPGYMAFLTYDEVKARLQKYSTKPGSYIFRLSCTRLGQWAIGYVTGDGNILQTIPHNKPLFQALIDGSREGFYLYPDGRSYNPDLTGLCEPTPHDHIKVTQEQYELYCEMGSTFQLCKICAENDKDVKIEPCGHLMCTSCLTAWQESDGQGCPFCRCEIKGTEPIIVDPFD

## Cn1cnnc1-c1cnn(C)c1-c1cc(C2CC2)nc(N2Cc3ccc(CNCC4(O)CCCC4)cc3C2=O)c1 [AFQ-3, 2-{6-Cyclopropyl-4-[2-methyl-4-(4-methyl-1,2,4-triazol-3-yl)pyrazol-3-yl]pyridin-2-yl}-6-({[(1-hydroxycyclopentyl)methyl]amino}methyl)-3H-isoindol-1-one]
[1]
  IC50: ≤ 200 nM
[2]
  EC50: < 200 nM
[3]
  EC50: < 200 nM

## CCNc1cc(-c2ccc(C#N)cc2-c2nncn2C)cc(N2Cc3c(cc(C(O)CN(C)C)cc3C(F)(F)F)C2=O)n1 (stereo not drawn) [AFR-7, 4-(2-{6-[2-(Dimethylamino)-1-hydroxyethyl]-1-oxo-4-(trifluoromethyl)-3H-isoindol-2-yl}-6-(ethylamino)pyridin-4-yl)-3-(4-methyl-1,2,4-triazol-3-yl) benzonitrile]
[1]
  IC50: ≤ 200 nM
[2]
  EC50: < 200 nM
[3]
  EC50: < 200 nM

## CC(=O)c1cc2c(c(C(F)(F)F)c1)CN(c1cc(-c3ccccc3-c3nncn3C)cc(C3CC3)n1)C2=O [AFS-1, 6-Acetyl-2-{6-cyclopropyl-4-[2-(4-methyl-1,2,4-triazol-3-yl)phenyl]pyridin-2-yl}-4-(trifluoromethyl)-3H-isoindol-1-one]
[1]
  IC50: ≤ 200 nM
[2]
  EC50: 200 to 1000 nM
[3]
  EC50: 10000 to 50000 nM

## Cn1cnnc1-c1cnn(C)c1-c1cc(C2CC2)nc(N2Cc3c(cc(COCC4(O)CCC4)cc3C(F)(F)F)C2=O)c1 [AFV-3, 2-{6-Cyclopropyl-4-[2-methyl-4-(4-methyl-1,2,4-triazol-3-yl)pyrazol-3-yl]pyridin-2-yl}-6-{[(1-hydroxycyclobutyl)methoxy]methyl}-4-(trifluoromethyl)-3H-isoindol-1-one]
[1]
  IC50: ≤ 200 nM
[2]
  EC50: < 200 nM
[3]
  EC50: 200 to 1000 nM

## C=C(C)c1cc(-c2ccc(F)cc2-c2nncn2C)cc(N2Cc3ccc(CNCC4(O)CCC4)cc3C2=O)n1 [AFW-3, 2-{4-[4-Fluoro-2-(4-methyl-1,2,4-triazol-3-yl)phenyl]-6-(prop-1-en-2-yl)pyridin-2-yl}-6-({[(1-hydroxycyclobutyl)methyl]amino}methyl)-3H-isoindol-1-one]
[1]
  IC50: ≤ 200 nM
[2]
  EC50: < 200 nM
[3]
  EC50: < 200 nM

## CC(C)c1cc(-c2ccc(F)cc2-c2nncn2C)cc(N2Cc3ccc(CNCC4(O)CCC4)cc3C2=O)n1 [AFX-1, 2-{4-[4-Fluoro-2-(4-methyl-1,2,4-triazol-3-yl)phenyl]-6-isopropylpyridin-2-yl}-6-({[(1-hydroxycyclobutyl)methyl]amino}methyl)-3H-isoindol-1-one]
[1]
  IC50: ≤ 200 nM
[2]
  EC50: < 200 nM
[3]
  EC50: < 200 nM

## CCNc1cc(-c2ccc(F)cc2-c2nncn2C)cc(N2Cc3c(cc(CO[C@@H]4CCC[C@@H]4O)cc3C(F)(F)F)C2=O)n1 [AFZ-1, 2-[6-(Ethylamino)-4-[4-fluoro-2-(4-methyl-1,2,4-triazol-3-yl)phenyl]pyridin-2-yl]-6-({[(1R,2S)-2-hydroxycyclopentyl]oxy}methyl)-4-(trifluoromethyl)-3H-isoindol-1-one]
[1]
  IC50: ≤ 200 nM
[2]
  EC50: < 200 nM
[3]
  EC50: 200 to 1000 nM

## Cn1cnnc1-c1cnn(C)c1-c1cc(C2CC2)nc(N2Cc3c(cc(CO[C@H]4CCC[C@H]4O)cc3C(F)(F)F)C2=O)c1 [AGA-1, 2-{6-Cyclopropyl-4-[2-methyl-4-(4-methyl-1,2,4-triazol-3-yl)pyrazol-3-yl]pyridin-2-yl}-6-({1[(1R,2S)-2-hydroxycyclopentyl]oxy}methyl)-4-(trifluoromethyl)-3H-isoindol-1-one]
[1]
  IC50: ≤ 200 nM
[2]
  EC50: < 200 nM
[3]
  EC50: 200 to 1000 nM

## CCNc1cc(-c2ccc(F)cc2-c2nncn2C)cc(N2Cc3c(cc(COCC4(F)CCC4)cc3C(F)(F)F)C2=O)n1 [AGB-1, 2-[6-(Ethylamino)-4-[4-fluoro-2-(4-methyl-1,2,4-triazol-3-yl)phenyl]pyridin-2-yl]-6-{1[(1-fluorocyclobutyl)methoxy]methyl}-4-(trifluoromethyl)-3H-isoindol-1-one]
[1]
  IC50: ≤ 200 nM
[2]
  EC50: < 200 nM
[3]
  EC50: 1000 to 10000 nM

## CCNc1cc(-c2ccc(C#N)cc2-c2nncn2C)cc(N2Cc3c(cc(CNC4CCCC4=O)cc3C(F)(F)F)C2=O)n1 (stereo not drawn) [AGC-5, 4-[2-(Ethylamino)-6-(1-oxo-6-{[(2-oxocyclopentyl)amino]methyl}-4-(trifluoromethyl)-3H-isoindol-2-yl)pyridin-4-yl]-3-(4-methyl-1,2,4-triazol-3-yl)benzonitrile]
[1]
  IC50: ≤ 200 nM
[2]
  EC50: < 200 nM
[3]
  EC50: 200 to 1000 nM

## CCNc1cc(-c2ccc(C#N)cc2-c2nncn2C)cc(N2Cc3c(cc(CNCCOC4CC4)cc3C(F)(F)F)C2=O)n1 [AGD-2, 4-[2-(6-{[(2-Cyclopropoxyethyl)amino]methyl}-1-oxo-4-(trifluoromethyl)-3H-isoindol-2-yl)-6-(ethylamino)pyridin-4-yl]-3-(4-methyl-1,2,4-triazol-3-yl)benzonitrile]
[1]
  IC50: ≤ 200 nM
[2]
  EC50: < 200 nM
[3]
  EC50: < 200 nM

## CCNc1cc(-c2ccc(F)cc2-c2nncn2C)cc(N2Cc3c(cc(COCCO)cc3C(F)(F)F)C2=O)n1 [AGE-3, 2-[6-(Ethylamino)-4-[4-fluoro-2-(4-methyl-1,2,4-triazol-3-yl)phenyl]pyridin-2-yl]-6-[(2-hydroxyethoxy)methyl]-4-(trifluoromethyl)-3H-isoindol-1-one]
[1]
  IC50: ≤ 200 nM
[2]
  EC50: < 200 nM
[3]
  EC50: < 200 nM

## CCNc1cc(-c2c(-c3nncn3C)cnn2C)cc(N2Cc3c(cc(COCC4(N)CCC4)cc3C(F)(F)F)C2=O)n1 [AGF-3, 6-{[(1-Aminocyclobutyl)methoxy]methyl}-2-[6-(ethylamino)-4-[2-methyl-4-(4-methyl-1,2,4-triazol-3-yl)pyrazol-3-yl]pyridin-2-yl]-4-(trifluoromethyl)-3H-isoindol-1-one]
[1]
  IC50: ≤ 200 nM
[2]
  EC50: 200 to 1000 nM
[3]
  EC50: 1000 to 10000 nM

## Cn1cnnc1-c1cc(F)ccc1-c1cc(C2CC2)nc(N2Cc3c(cc(COCC4(N)CCC4)cc3C(F)(F)F)C2=O)c1 [AGG-2, 6-{1[(1-Aminocyclobutyl)methoxy]methyl}-2-{6-cyclopropyl-4-[4-fluoro-2-(4-methyl-1,2,4-triazol-3-yl)phenyl]pyridin-2-yl}-4-(trifluoromethyl)-3H-isoindol-1-one]
[1]
  IC50: ≤ 200 nM
[2]
  EC50: < 200 nM
[3]
  EC50: < 200 nM

## Cn1cnnc1-c1cc(F)ccc1-c1cc(C2CC2)nc(N2Cc3ccc(CO)cc3C2=O)c1 [AGH-2, 2-{6-Cyclopropyl-4-[4-fluoro-2-(4-methyl-1,2,4-triazol-3-yl)phenyl]pyridin-2-yl}-6-(hydroxymethyl)-3H-isoindol-1-one]
[1]
  IC50: ≤ 200 nM
[2]
  EC50: < 200 nM
[3]
  EC50: 1000 to 10000 nM

## Cn1cnnc1-c1cc(F)ccc1-c1cc(C2CC2)nc(N2Cc3ccc(COCC4(N)CCC4)cc3C2=O)c1 [AGI-3, 6-{1[(1-Aminocyclobutyl)methoxy]methyl}-2-{6-cyclopropyl-4-[4-fluoro-2-(4-methyl-1,2,4-triazol-3-yl)phenyl]pyridin-2-yl}-3H-isoindol-1-one]
[1]
  IC50: ≤ 200 nM
[2]
  EC50: < 200 nM
[3]
  EC50: < 200 nM

## CCNc1cc(-c2ccc(C#N)cc2-c2nncn2C)cc(N2Cc3c(cc(COCC4(N)CCC4)cc3C(F)(F)F)C2=O)n1 [AGJ-2, 4-[2-(6-{[(1-aminocyclobutyl)methoxy]methyl}-1-oxo-4-(trifluoromethyl)-3H-isoindol-2-yl)-6-(ethylamino)pyridin-4-yl]-3-(4-methyl-1,2,4-triazol-3-yl)benzonitrile]
[1]
  IC50: ≤ 200 nM
[2]
  EC50: < 200 nM
[3]
  EC50: 1000 to 10000 nM

## Cn1cnnc1-c1cc(C#N)ccc1-c1cc(C2CC2)nc(N2Cc3c(cc(C4(O)CCC4)cc3C(F)(F)F)C2=O)c1 [AGM-5, 4-{2-Cyclopropyl-6-[6-(1-hydroxycyclobutyl)-1-oxo-4-(trifluoromethyl)-3H-isoindol-2-yl]pyridin-4-yl}-3-(4-methyl-1,2,4-triazol-3-yl)benzonitrile]
[1]
  IC50: ≤ 200 nM
[2]
  EC50: < 200 nM
[3]
  EC50: 200 to 1000 nM

## Cn1cnnc1-c1cc(C#N)ccc1-c1cc(C2CC2)nc(N2Cc3c(cc(CNCCOC(F)(F)F)cc3C(F)(F)F)C2=O)c1 [AGN-3, 4-{2-Cyclopropyl-6-[1-oxo-6-({[2-(trifluoromethoxy)ethyl]amino}methyl)-4-(trifluoromethyl)-3H-isoindol-2-yl]pyridin-4-yl}-3-(4-methyl-1,2,4-triazol-3-yl)benzonitrile]
[1]
  IC50: ≤ 200 nM
[2]
  EC50: < 200 nM
[3]
  EC50: 200 to 1000 nM

## COCCNCc1ccc2c(c1)C(=O)N(c1cc(-c3ccc(C#N)cc3-c3nncn3C)cc(C3CC3)n1)C2 [AGO-2, 4-(2-Cyclopropyl-6-(6-(((2-methoxyethyl)amino)methyl)-1-oxoisoindolin-2-yl)pyridin-4-yl)-3-(4-methyl-4H-1,2,4-triazol-3-yl)benzonitrile]
[1]
  IC50: ≤ 200 nM
[2]
  EC50: < 200 nM
[3]
  EC50: < 200 nM

## Cn1cnnc1-c1cc(F)ccc1-c1cc(C2CC2)nc(N2Cc3ccc(CNCC4(O)CCCC4)cc3C2=O)c1 [AGP-1, 2-{6-Cyclopropyl-4-[4-fluoro-2-(4-methyl-1,2,4-triazol-3-yl)phenyl]pyridin-2-yl}-6-({[(1-hydroxycyclopentyl)methyl]amino}methyl)-3H-isoindol-1-one]
[1]
  IC50: ≤ 200 nM
[2]
  EC50: < 200 nM
[3]
  EC50: 200 to 1000 nM

## CCOc1cc(-c2ccc(F)cc2-c2nncn2C)cc(N2Cc3c(cc(CNCC4(O)CCC4)cc3C(F)(F)F)C2=O)n1 [AGQ-2, 2-{6-Ethoxy-4-[4-fluoro-2-(4-methyl-1,2,4-triazol-3-yl)phenyl]pyridin-2-yl}-6-({[(1-hydroxycyclobutyl)methyl]amino}methyl)-4-(trifluoromethyl)-3H-isoindol-1-one]
[1]
  IC50: ≤ 200 nM
[2]
  EC50: < 200 nM
[3]
  EC50: 200 to 1000 nM
